Experimental data from US20050009840A1 (SUGEN, INC., priority 2003, published 2005).

The molecules below were run against T1, Met kinase domain (GST fusion protein) (Homo sapiens, UniProt P08581) (assay: Met transphosphorylation assay (ELISA, poly(glu-tyr) substrate)). Details: read-out: Met IC50.
T1 construct: Purified GST fusion protein containing the Met kinase domain
Assay type: biochemical
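Note: Cell-free ELISA with plate-bound poly(Glu:Tyr 4:1) phosphorylated by GST-fused Met kinase domain plus ATP and Mn2+, phosphotyrosine detected by anti-phosphotyrosine antibody with HRP and ABTS read-out.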

T1 sequence (P08581 1078-1345 limits assumed): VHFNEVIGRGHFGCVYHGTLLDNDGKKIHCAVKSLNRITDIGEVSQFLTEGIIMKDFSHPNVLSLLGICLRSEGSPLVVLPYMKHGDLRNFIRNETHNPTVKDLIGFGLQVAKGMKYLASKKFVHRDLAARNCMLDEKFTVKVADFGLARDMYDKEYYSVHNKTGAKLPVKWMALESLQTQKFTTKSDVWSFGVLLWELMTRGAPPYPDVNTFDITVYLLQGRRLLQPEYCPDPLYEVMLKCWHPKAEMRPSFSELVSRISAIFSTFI

Row | SMILES | IC50
1 | CC(=O)N1CCN(CCNC(=O)c2ccc(-c3cnc(N)c(OCc4c(F)ccc(F)c4Cl)n3)cc2)CC1 [II-37, N-[2-(4-Acetyl-piperazin-1-yl)-ethyl]-4-[5-amino-6-(2-chloro-3,6-difluoro-benzyloxy)-pyrazin-2-yl]-benzamide] | 1.35 µM
2 | Nc1ncc(-c2ccc(C(=O)NCCCN3CCCC3)cc2)nc1OCc1c(F)ccc(F)c1Cl [II-38, 4-[5-Amino-6-(2-chloro-3,6-difluoro-benzyloxy)-pyrazin-2-yl]-N-(3-pyrrolidin-1-yl-propyl)-benzamide] | 0.58 µM
3 | CN(C)[C@H]1CCN(C(=O)c2ccc(-c3cnc(N)c(OCc4c(F)ccc(F)c4Cl)n3)cc2)C1 [II-39, {4-[5-Amino-8-(2-chloro-3,6-difluoro-benzyloxy)-pyrazin-2-yl]-phenyl}-[(3S)-3-dimethylamino-pyrrolidin-1-yl]-methanone] | 0.67 µM
4 | Nc1ncc(-c2ccc(C(=O)NCCCN3CCOCC3)cc2)nc1OCc1c(F)ccc(F)c1Cl [II-43, 4-[5-Amino-6-(2-chloro-3,6-difluoro-benzyloxy)-pyrazin-2-yl]-N-(3-morpholin-4-yl-propyl)-benzamide] | 0.59 µM
5 | Nc1ncc(-c2ccc(C(=O)NCCN3CCOCC3)cc2)nc1OCc1c(F)ccc(F)c1Cl [II-45, 4-[5-Amino-6-(2-chloro-3,6-difluoro-benzyloxy)-pyrazin-2-yl]-N-(2-morpholin-4-yl-ethyl)-benzamide] | 1.11 µM
6 | CN1CCN(C(=O)c2ccc(-c3cnc(N)c(OCc4c(F)ccc(F)c4Cl)n3)cc2)CC1 [II-46, {4-[5-Amino-6-(2-chloro-3,6-difluoro-benzyloxy)-pyrazin-2-yl]-phenyl}-(4-methyl-piperazin-1-yl)-methanone] | 0.68 µM
7 | CN1CCN(C(=O)c2cccc(-c3cnc(N)c(OCc4c(F)ccc(F)c4Cl)n3)c2)CC1 [II-48, {3-[5-Amino-6-(2-chloro-3,6-difluoro-benzyloxy)-pyrazin-2-yl]-phenyl}-(4-methyl-piperazin-1-yl)-methanone] | 2.85 µM
8 | Nc1ncc(-c2cccc(C(=O)N3CC[C@@H](N)C3)c2)nc1OCc1c(F)ccc(F)c1Cl [II-49, {3-[5-Amino-6-(2-chloro-3,6-difluoro-benzyloxy)-pyrazin-2-yl]-phenyl}-[(3R)-3-amino-pyrrolidin-1-yl]-methanone] | 1.02 µM
9 | Nc1ncc(-c2cccc(C(=O)N3CC[C@H](N)C3)c2)nc1OCc1c(F)ccc(F)c1Cl [II-50, {3-[5-Amino-6-(2-chloro-3,6-difluoro-benzyloxy)-pyrazin-2-yl]-phenyl}-[(3S)-3-amino-pyrrolidin-1-yl]-methanone] | 0.91 µM
10 | Nc1ncc(-c2cccc(C(=O)NCCCN3CCOCC3)c2)nc1OCc1c(F)ccc(F)c1Cl [II-52, 3-[5-Amino-6-(2-chloro-3,6-difluoro-benzyloxy)-pyrazin-2-yl]-N-(3-morpholin-4-yl-propyl)-benzamide] | 4.2 µM
11 | Nc1ncc(-c2cccc(C(=O)NCCN3CCCC3)c2)nc1OCc1c(F)ccc(F)c1Cl [II-55, 3-[5-Amino-6-(2-chloro-3,6-difluoro-benzyloxy)-pyrazin-2-yl]-N-(2-pyrrolidin-1-yl-ethyl)-benzamide] | 1.6 µM
12 | Nc1ncc(-c2cccc(C(=O)N3CCC[C@H]3CN3CCCC3)c2)nc1OCc1c(F)ccc(F)c1Cl [II-57, {3-[5-Amino-6-(2-chloro-3,6-difluoro-benzyloxy)-pyrazin-2-yl]-phenyl}-[(2S)-pyrrolidin-1-ylmethyl-pyrrolidin-1-yl]-methanone] | 0.63 µM
13 | Nc1ncc(-c2cccc(C(=O)NCCN3CCOCC3)c2)nc1OCc1c(F)ccc(F)c1Cl [II-58, 3-[5-Amino-6-(2-chloro-3,6-difluoro-benzyloxy)-pyrazin-2-yl]-N-(2-morpholin-4-yl-ethyl)-benzamide] | 2.5 µM
14 | CC(=O)N1CCN(CCNC(=O)c2cccc(-c3cnc(N)c(OCc4c(F)ccc(F)c4Cl)n3)c2)CC1 [II-59, N-[2-(4-Acetyl-piperazin-1-yl)-ethyl]-3-[5-amino-6-(2-chloro-3,6-difluoro-benzyloxy)-pyrazin-2-yl]-benzamide] | 2.77 µM
15 | Nc1ncc(-c2cccc(C(=O)NCCCN3CCCC3)c2)nc1OCc1c(F)ccc(F)c1Cl [II-60, 3-[5-Amino-6-(2-chloro-3,6-difluoro-benzyloxy)-pyrazin-2-yl]-N-(3-pyrrolidin-1-yl-pyropyl)-benzamide] | 1.48 µM
16 | Nc1ncc(-c2ccc3[nH]cc(CN4CCCC4)c3c2)nc1OCc1c(F)ccc(F)c1Cl [II-62, 3-(2-Chloro-3,6-difluoro-benzyloxy)-5-(3-pyrrolidin-1-ylmethyl-1H-indol-5-yl)-pyrazin-2-ylamine] | 0.35 µM
17 | C[C@@H]1CN(Cc2c[nH]c3ccc(-c4cnc(N)c(OCc5c(F)ccc(F)c5Cl)n4)cc23)C[C@H](C)O1 [II-65, 3-(2-Chloro-3,6-difluoro-benzyloxy)-5-[3-(2,6-dimethyl-morpholin-4-ylmethyl)-1H-indol-5-yl]-pyrazin-2-ylamine] | 2.4 µM
18 | CC(Oc1nc(-c2cccc(C(=O)O)c2)cnc1N)c1c(Cl)ccc(F)c1Cl (centres unmarked) [II-83, 3-{5-amino-6-[1-(2,6-dichloro-3-fluoro-phenyl)-ethoxy]-pyrazin-2-yl}benzoic acid] | 1.36 µM

Second part, the molecule after the results:

Row | IC50 | SMILES
19 | 0.73 µM | CCN(CC)Cc1c[nH]c2ccc(-c3cnc(N)c(OCc4c(F)ccc(F)c4Cl)n3)cc12 [II-63, 3-(2-Chloro-3,6-difluoro-benzyloxy)-5-(3-diethylaminomethyl-1H-indol-5-yl)-pyrazin-2-ylamine]
20 | 1.5 µM | CC(=O)N1CCN(Cc2c[nH]c3ccc(-c4cnc(N)c(OCc5c(F)ccc(F)c5Cl)n4)cc23)CC1 [II-64, 1-(4-{5-[5-Amino-6-(2-chloro-3,6-difluoro-benzyloxy)-pyrazin-2-yl]-1H-indol-3-ylmethyl}-piperazin-1-yl)-ethanone]
21 | 0.55 µM | CC(=O)N[C@H]1CCN(Cc2c[nH]c3ccc(-c4cnc(N)c(OCc5c(F)ccc(F)c5Cl)n4)cc23)C1 [II-66, N-(1-{5-[5-Amino-6-(2-chloro-3,6-difluoro-benzyloxy)-pyrazin-2-yl]-1H-indol-3-ylmethyl}-(3S)-pyrrolidin-3-yl)-acetamide]
22 | 0.51 µM | Nc1ncc(-c2ccc3[nH]cc(CN4CCCCC4)c3c2)nc1OCc1c(F)ccc(F)c1Cl [II-67, 3-(2-Chloro-3,6-difluoro-benzyloxy)-5-(3-piperidin-1-ylmethyl-1H-indol-5-yl)-pyrazin-2-ylamine]
23 | 1.15 µM | Nc1ncc(-c2ccc3[nH]cc(CN4CCOCC4)c3c2)nc1OCc1c(F)ccc(F)c1Cl [II-68, 3-(2-Chloro-3,6-difluoro-benzyloxy)-5-(3-morpholin-4-ylmethyl-1H-indol-5-yl)-pyrazin-2-ylamine]
24 | 10.6 µM | CC(C)C(Oc1nc(-c2ccc(OCCN3CCOCC3)cc2)cnc1N)c1c(F)ccc(F)c1Cl (centres unmarked) [II-69, 3-[1-(2-Chloro-3,6-difluoro-phenyl)-2-methyl-propoxy]-5-[4-(2-morpholin-4-yl-ethoxy)-phenyl]-pyrazin-2-ylamine]
25 | 0.51 µM | CC(Oc1nc(-c2ccc(OCCN3CCOCC3)cc2)cnc1N)c1c(F)ccc(F)c1Cl (centres unmarked) [II-70]
26 | 0.3 µM | CC(Oc1nc(-c2ccc(OCCN3CCOCC3)cc2)cnc1N)c1c(Cl)ccc(F)c1Cl (centres unmarked) [II-71, 3-[1-(2,6-Dichloro-3-fluoro-phenyl)-ethoxy]-5-[4-(2-morpholin-4-yl-ethoxy)-phenyl]-pyrazin-2-ylamine; compound with trifluoro-acetic acid]
